In assay [1] the target is T1, Type I NOS (rat brain cytosol) (Rattus norvegicus, UniProt P29476).
T1 construct: type I isozyme from rat brain cerebellum; from tissue; host or cells: rat brain (cytosol; cerebellum, phosphocellulose-purified)
Kind of assay: [3H]-Arginine to [3H]-Citrulline conversion, rat brain cytosol (Type I NOS). In kind it is biochemical. The settings on record: for IC50: read-out: Inhibition of [3H]-Citrulline Formation IC50, Rat Brain Cytosol. The text has this: (§1) The enzyme NO synthase produces EDRF/NO and citrulline from L-arginine (Bredt and Snyder, Proc. Nat'l. Acad. Sci. USA, 1989, 87: 682-5). The enzymatic generation of EDRF/NO is monitored by measuring the conversion of [^3 H]-L-arginine to [^3 H]-L-citrulline. An inhibitor of this specific enzymatic reaction lowers the conversion rate and, thus, the amount of [^3 H]-L-citrulline produced. Likewise, a compound acting as a substrate would compete with L-arginine and thereby lower the conversion rate.
(§2) The conversion of L-arginine to L-citrulline was assayed as reported previously (Bredt and Snyder, Proc. Nat'l Acad Sci USA, 1989, 87: 682-5) with minor modifications. Briefly, samples of partially purified NO synthase, 50-100 μg of protein or 20 μL of cytosol (alternatively cytosolic preparations from RAW 264.7 cells, a murine monocyte-macrophage cell line, induced for 16 hours with 10 μg/mL medium of Lipopolysaccharide (LPS), or partially purified (phosphocellulose column) type I isozyme from rat brain cerebellum, or partially purified isozyme III from bovine aortic endothelial cells (BAE cells)) were incubated for 20 minutes (3 minutes in the cases of purified enzyme preparations) at 25° C. in the presence of 10 μM L-[2,3-^3 H]arginine (55 Ci /mmol) (containing 34 nM (0.2 μCi)), 1 mM NADPH, and 2 Mm CaCl2 in a final volume of 100 μL. The reaction was stopped by adding 1 mL of stop buffer (2 mM EGTA, 2 mM EDTA 20 mM Hepes, pH 5.5). The total volume was then applied to a 1 mL Dowex AG 50 WX-8 column (Na^+ form, Bio-Rad) that had been pre-equilibrated with the stop buffer. L-[2,3-^3 H]Citrulline was eluted (2×) with 0.5 mL of stop buffer and radioactivity was determined by liquid scintillation counting.
(§3) The following Tables present data on the inhibition of [^3 H]-citrulline formation from [^3 H]-L-arginine by the compounds of the invention in various preparations representative of the isoforms of NOS, Types I, II, and III NOS as represented by rat brain cytosol, […] macrophage cell cytosol, and BAE homogenate preparation respectively.

Assay [2] concerns the target T2, Type III NOS (BAE homogenate preparation) (Bos taurus, UniProt P29473).
T2 construct: partially purified isozyme III from bovine aortic endothelial cells (BAE cells); endogenous in cells; host or cells: bovine aortic endothelial (BAE) cells
The assay can be described thus: [3H]-Arginine to [3H]-Citrulline conversion, BAE homogenate preparation (Type III NOS). In kind it is biochemical, bovine. The settings on record: for IC50: read-out: Inhibition of [3H]-Citrulline Formation IC50, BAE Preparation.
Source text: as §1, §2, §3

Assay [3] has as its target T3, Type II NOS (RAW macrophage cell cytosol) (Mus musculus, UniProt P29477).
T3 construct: cytosolic preparations from RAW 264.7 cells; endogenous in cells; host or cells: RAW 264.7 cells, LPS-induced for 16 hours
The assay can be described thus: [3H]-Arginine to [3H]-Citrulline conversion, RAW cell cytosol (Type II NOS). The assay is classed as biochemical, murine. To be noted: for inhibition at 100 µM / IC50: LPS induced; for IC50: read-out: Inhibition of [3H]-Citrulline Formation IC50, RAW Cell cytosol.
Source text: as §1, §2, §3

Setting [4] is: read-out: Percent Inhibition of [3H]-Citrulline Formation, Rat Brain Cytosol.
Where [5] appears, read: read-out: Percent Inhibition of [3H]-Citrulline Formation, RAW Cell Cytosol.
Where [6] appears, read: read-out: Percent Inhibition of [3H]-Citrulline Formation, BAE Preparation.

A value given as a limit tells only on which side of the number the result lay.

On to `CC(C)(C)OC(=O)N1[C@@H](/C=C/CNC(=N)N[N+](=O)[O-])COC1(C)C` [Example 1, 3-(1,1 -Dimethylethyl)-(S)-4-(3-N^G -nitroguanidinopropen-1, E-yl)-2,2-dimethyl-3-oxazolidinecarboxvlate], for which the inhibition at 100 µM in assay [1] (setting [4]) stood at 6%; in assay [3] (setting [5]) it was 0%. Besides, the IC50 in assay [1], in assay [2] and in assay [3] was over 100 µM throughout.
With `N=C(NC/C=C/[C@H](N)CO)N[N+](=O)[O-]` [Example 2, N^G -Nitroguanidinyl-4(S)-amino-pent-2,E-ene-5-ol], the inhibition at 100 µM was 80% in assay [1] (setting [4]) and 14% in assay [3] (setting [5]). Further, the IC50 in assay [1] was 40 µM; in assay [2] it was 80 µM; in assay [3], over 100 µM.
`CC(C)(C)OC(=O)N1[C@@H](/C=C/CNC(=N)N)COC1(C)C` [Example 3, 3-(1,1-Dimethylethyl)-(S)-4-(3-guanidinopropen-1,E-yl)-2,2-dimethyl-3-oxazolidinecarboxylate]: the inhibition at 100 µM in assay [1] (setting [4]) was 35%; in assay [3] (setting [5]), 68%. Also, the IC50 in assay [1] was over 100 µM; in assay [2], over 100 µM; in assay [3], 40 µM.
`N=C(N)NC/C=C/[C@H](N)CO` [Example 4, 1-Guanidirlyl-4(S)-amino-pent-2,E-ene-5-ol]: the inhibition at 100 µM in assay [2] (setting [6]) was found to be 22%; in assay [3] (setting [5]), 50%. The IC50 is over 100 µM in assay [2] and 100 µM in assay [3].
In the case of `N=C(NN)NC/C=C/[C@H](N)CO` [Example 6, N^G -Aminoguanidinyl-4(S)-amino-pent-2,E-ene-5-ol], the IC50 in assay [1] was over 30 µM; in assay [2] it was over 30 µM; in assay [3] it was 22 µM. For the same compound, the inhibition at 30 µM was 0% in assay [1] (tested at 30 μM, read-out: Percent Inhibition of [3H]-Citrulline Formation, Rat Brain Cytosol) and 0% in assay [2] (tested at 30 μM, read-out: Percent Inhibition of [3H]-Citrulline Formation, BAE Preparation). Moreover, the inhibition at 10 µM in assay [3] (tested at 10 μM, read-out: Percent Inhibition of [3H]-Citrulline Formation, RAW Cell Cytosol) stood at 46%.
Consider `CC(C)(C)OC(=O)N1[C@@H](/C=C/CNC(=N)NO)COC1(C)C` [Example 7, 3-(1,1-Dimethylethyl)-(S)-4-(3-N^G -hydroxyguanidinopropen-1,E-yl)-2.2-dimethyl-3-oxazolidinecarboxylate], for which the inhibition at 100 µM in assay [3] (setting [5]) worked out at 17%. For the same compound, the IC50 in assay [3] is over 100 µM.
`N=C(NO)NC/C=C/[C@H](N)CO` [Example 8, N^G -Hydroxyguanidinyl-4(S)-amino-pent-2,E-ene-5-ol]: the inhibition at 100 µM came to 23% in assay [1] (setting [4]) and 13% in assay [3] (setting [5]). In addition, the IC50 in assay [1] and in assay [3] was over 100 µM in each case.
Take `CNC(=N)NC/C=C/[C@H]1COC(C)(C)N1C(=O)OC(C)(C)C` [Example 9, 3-(1,1-Dimethylethyl)-(S)-4-(3-N^G -methylguanidinoorooen-1,E-yl)-2.2-dimethyl-3-oxazolidinecarboxylate]: the figures for the inhibition at 100 µM in assay [1] (setting [4]) and in assay [3] (setting [5]) were 51% and 47%, respectively. Moreover, the figures for the IC50 in assay [1] and in assay [3] were 80 µM and 100 µM, respectively.
In the case of `CNC(=N)NC/C=C/[C@H](N)CO` [Example 10, N^G -Methylguanidinyl-4(S)-Amino-pent-2 ,E-ene-5-ol], the inhibition at 100 µM in assay [1] (setting [4]) worked out at 74%; in assay [2] (setting [6]), 40%; in assay [3] (setting [5]), 43%. For the same compound, the IC50 in assay [1] was 30 µM; in assay [2], over 100 µM; in assay [3], over 100 µM.
Take `CCNC(=N)NC/C=C/[C@H]1COC(C)(C)N1C(=O)OC(C)(C)C` [Example 11, 3-(1,1-Dimethylethyl)-(S)-4-(3-N^G -ethylguanidinopropen-1,E-yl)-2,2-dimethyl-3-oxazolidinecarboxylate]: the inhibition at 100 µM in assay [1] (setting [4]) came out at 20%; in assay [3] (setting [5]) it was 41%. Besides, the IC50 in assay [1] and in assay [3] was over 100 µM throughout.
Consider `CCNC(=N)NC/C=C/[C@H](N)CO` [Example 12, N^G Ethylguanidinyl-4(S)-Amino-pent-2,E-ene-5-ol], for which the inhibition at 100 µM in assay [1] (setting [4]) came to 70%; in assay [2] (setting [6]), 5%; in assay [3] (setting [5]) it was 8%. Also, the values for the IC50 in assay [1], in assay [2] and in assay [3] were 30 µM, over 100 µM and over 100 µM, respectively.
As for `C/C(=C\[C@H]1COC(C)(C)N1C(=O)OC(C)(C)C)CNC(=N)N[N+](=O)[O-]` [Example 14, 3-(1,1-Dimethylethyl)-(S)-4-(3-nitroguanidino-2-methyl-propen-1,E-yl)-2,2-dimethyl-3-oxazolidinecarboxylate], the inhibition at 100 µM in assay [1] (setting [4]) and in assay [3] (setting [5]) was 0% throughout. Also, the IC50 in assay [1], in assay [2] and in assay [3] was over 100 µM each time.
As for `C/C(=C\[C@H](N)CO)CNC(=N)N[N+](=O)[O-]` [Example 15, N^G -Nitroguanidinyl-4(S)-Amino-2-methyl-pent-2,E-ene-5-ol], the inhibition at 100 µM in assay [1] (setting [4]) is 90%; in assay [2] (setting [6]), 50%; in assay [3] (setting [5]), 66%. In addition, the IC50 amounted to 10 µM in assay [1], 100 µM in assay [2] and 40 µM in assay [3].
Regarding `CNC(=N)NC/C=C/[C@@H](CO)NC(=O)OC(C)(C)C` [Example 17, N^4, Boc-N^G -Methylguanidinyl-4(S)-Amino-pent-2,E-ene-5-ol], the inhibition at 100 µM worked out at 18% in assay [1] (setting [4]) and 6% in assay [3] (setting [5]). Besides, the IC50 in assay [1] and in assay [3] was over 100 µM throughout.
For `CNC(=N)NC/C=C/[C@@H]1COC(C)(C)N1C(=O)OC(C)(C)C` [Example 18, 3-(1,1-Dimethylethyl)-(R)-4-(3-N^G -methylguanidinopropen-1,E-yl)-2,2-dimethyl-3-oxazolidinecarboxylate], the inhibition at 100 µM in assay [1] (setting [4]) is 17%; in assay [3] (setting [5]) it was 9%. For the same compound, the IC50 in assay [1] and in assay [3] was over 100 µM each time.
Regarding `CNC(=N)NC/C=C/[C@@H](N)CO` [Example 19, N-^G -Methylguanidinyl-4(R)-Amino-pent-2,E-ene,5-ol], the values for the inhibition at 100 µM in assay [1] (setting [4]), in assay [2] (setting [6]) and in assay [3] (setting [5]) were 77%, 0% and 27%, respectively. The figures for the IC50 in assay [1], in assay [2] and in assay [3] were 35 µM, over 100 µM and over 100 µM, respectively.
In the case of `C/C(=C\[C@H]1COC(C)(C)N1C(=O)OC(C)(C)C)CNC(=N)N` [Example 20, 3-(1,1-Dimethylethyl)-(S)-4-(3-guanidino-2-methyl-propen-1,E-yl)-2,2-dimethyl-3-oxazolidinecarboxylate], the inhibition at 100 µM in assay [1] (setting [4]) turned out to be 27%; in assay [3] (setting [5]) it was 45%. Moreover, the values for the IC50 in assay [1] and in assay [3] were over 100 µM and 100 µM, respectively.
With `C/C(=C\[C@H](N)CO)CNC(=N)N` [Example 21, N^G -Guanidinyl-4(S)-Amino-2-methyl-pent-2,E-ene-5-ol], the inhibition at 100 µM in assay [1] (setting [4]) worked out at 86%; in assay [2] (setting [6]) it was 50%; in assay [3] (setting [5]), 94%. Moreover, the IC50 is 20 µM in assay [1], 100 µM in assay [2] and 30 µM in assay [3].
For `CC(C)(C)OC(=O)N1[C@@H](/C=C(/CNC(=N)N)Cc2ccccc2)COC1(C)C` [Example 24, 3-(1,1-Dimethylethyl)-(S)-4-(3,guanidino-2-benzyl-propen-1,E,yl)-2,2-dimethyl--oxazolidinecarboxylate], the inhibition at 100 µM came to 35% in assay [1] (setting [4]) and 20% in assay [3] (setting [5]). The IC50 in assay [1] and in assay [3] was over 100 µM throughout.
